Source: patent US8647615B1, “Methods for attracting honey bee parasitic mites” (The United States of America, as represented by the …, priority 2010, dated 2014)
“Also recorded” adds a separate entry of the source.

Legend:
Varroa mite forelegs = experiment: coupled gas chromatography and electroantennographic detection (GC-EAD) with mite forelegs; design: species or system Varroa mites; conditions: standard with compounds at equal concentrations
Description: To determine if mites can detect the acid compounds we used coupled gas chromatography and electroantennographic detection (GC-EAD) and electroantennography (EAG). […] A detecting electrode was set up with electrode gel on each contact and then a mite was dissected so that both of its forelegs could be set across the electrodes. The electrode gel provides both a better contact and keeps the forelegs from drying out. For GC-EAD we used a standard containing our two attractive acids along with other short chain acids (i.e., acetic acid, propanoic acid, and hexanoic acid) and common bee odors (iso-pentyl acetate, delta-3-carene, E-(β)-ocimine) at equal concentrations. […] We used EAG to determine the responses of forelegs to the individual detected compounds. […] The dashed line in FIG. 6 represents the level of the control response.

[1] = tested on: phoretic mites on adult bees; experiment: bottom screen assay: mite-infested adult worker bees in screen bottomed jar over water trap; type: in vivo, Varroa mites; conditions: 20 minutes; for mites that fell off bees versus control jars: 200 mite-infested bees per jar, 100 μL, three replicates, control methylene chloride; for mite activity level versus control treatments: exposure to acid volatiles
Experimental: We then performed a bottom screen assay to assess the response of phoretic mites on adult bees to the acid volatiles. We placed 200 mite-infested adult worker bees in a screen bottomed jar inverted over a water trap. A total of nine jars were used, three replicates of each treatment. The mites and bees were exposed to either butyric acid, isobutyric acid, or a control solvent (methylene chloride) (100 μL) for 20 minutes. Mites that moved off the bees fell into the water trap below. At the end of the experiment, the bees were washed with alcohol to estimate the number of mites that remained on the bees.

[2] = tested on: Free-roaming (off the adult bee) mites; experiment: four choice arena bioassay; type: in vivo, Varroa mites; conditions: for mite attraction: movement toward odor source (contact or position at end of bioassay): 5% by volume in distilled water vs three water controls, 5 minutes, expected value 25%; for arrestant (stopping) behavior: four choice arena, 5% by volume in distilled water
Description: (§1) We developed a four choice bioassay to evaluate the responses of mites to highly concentrated volatiles released at very close distances (7 mm). Our choice arena consisted of four odor sources presented directly beneath a permeable mesh floor. Each odor source was introduced by capillary release from a capillary tube, the volatiles diffused up through the permeable mesh floor. Free-roaming (off the adult bee) mites were introduced onto a vertical pin placed in the center of the arena. […] The expected value for response is 25% as indicated by the dashed line. […] Free-roaming mites were also exposed to these chemicals under the microscope to visually evaluate mite detection, attraction, and arrestant responses to the acid volatiles.

Free-roaming mites = experiment: visual evaluation of free-roaming mites under the microscope; type: in vivo, Varroa mites; conditions: for excitation and search behaviors (questing and casting): acid volatiles from capillary tubes; for movement relative to acid droplets: free-roaming mites
Description: as §1, with “Once we determined that the mites could perceive and respond to the acid volatiles, we examined whether these acids acted as attractants or repellents. We” for “We”

mites [3] = experiment: two choice diffusion bioassay, Ethovision tracking; type: in vivo, Varroa mites; conditions: 5% butyric acid in water vs water, 8 mites, p<0.001
Description: (§2) This experiment used the tracking software Ethovision XT (Noldus Information Technology, Leesburg Va.) to monitor the position of mites in an arena. The arena was a four quadrant petri dish 7.5 cm in diameter, the sides of the dish were ground down so that the separations were all the same height as the edges. A plexiglass ring, 7.5 cm outside diameter 2.5 cm high, with 11 micron Nitex fabric attached to the bottom contained the mite and separated the mite from the odor sources but allowed the odors to diffuse through the fabric. The petri dish quadrants were filled either with 5% butyric acid in water, or water only as a control. Opposite quadrants were filled with the same material so that the bottom of each quadrant was completely covered with liquid. This ensured equal surface areas for diffusion of the solute and solvent. Each experiment was conducted with 8 mites. […] A second set of no choice assays was also performed, these assays used an un-separated petri dish to hold the 5% acid solution and the movements of the mites over the solution were monitored.

mites [4] = experiment: no choice test with Ethovision analysis; type: in vivo, Varroa mites
Description: as §2

SMILES: C=C/C(C)=C/CC=C(C)C [E-(β)-ocimine]
- detection by mite forelegs (GC-EAD) (Varroa mite forelegs): did not appear to be detected

SMILES: CC(=O)O [acetic acid]
- detection by mite forelegs (GC-EAD) (Varroa mite forelegs): could clearly detect

SMILES: CCCC(=O)O [butyric acid]
- mites that fell off bees versus control jars [1]: significantly more mites fell off bees
- mite activity level versus control treatments [1]: much higher activity levels
- detection by mite forelegs (GC-EAD) (Varroa mite forelegs): excited by
- mite attraction: movement toward odor source (contact or position at end of bioassay) [2]: significantly more likely to move in the direction of
- arrestant (stopping) behavior [2]: did not display any arrestant (stopping) behavior
- excitation and search behaviors (questing and casting) (Free-roaming mites): showed excitation and search behaviors
- movement relative to acid droplets (Free-roaming mites): moved toward and occasionally into acid droplets
- time spent in zone over odor source versus control zones (mites [3]): spent significantly more time
- time spent in zone over odor source versus control zones (mites [3]; listed as Butyric Acid): more time is spent
- movement (speed, stopping, time moving) versus water control (mites [4]; 5% acid solution, un-separated petri dish): significantly less time moving; also recorded: moving slower and stopping more often
- time spent in zone/arena over the acid versus water (mites [4]; 5% acid solution, un-separated petri dish, p<0.001): significantly more time; also recorded: spent more time in the arena
- arrestant behaviors on sustained exposure (mites [4]; EthoVision diffusion bioassays, sustained exposure to high concentrations of volatiles): caused arrestant behaviors

SMILES: CC1=CCC2C(C1)C2(C)C (stereo not shown) [delta-3-carene]
- detection by mite forelegs (GC-EAD) (Varroa mite forelegs): did not appear to be detected

SMILES: CCCCCC(=O)O [hexanoic acid]
- detection by mite forelegs (GC-EAD) (Varroa mite forelegs): did not appear to be detected

SMILES: CC(=O)OCCC(C)C [iso-pentyl acetate]
- detection by mite forelegs (GC-EAD) (Varroa mite forelegs): did not appear to be detected

SMILES: CC(C)C(=O)O [isobutyric acid]
- mites that fell off bees versus control jars [1]: significantly more mites fell off bees
- mite activity level versus control treatments [1]: much higher activity levels
- detection by mite forelegs (GC-EAD) (Varroa mite forelegs): excited by
- mite attraction: movement toward odor source (contact or position at end of bioassay) [2]: significantly more likely to move in the direction of
- arrestant (stopping) behavior [2]: did not display any arrestant (stopping) behavior
- excitation and search behaviors (questing and casting) (Free-roaming mites): showed excitation and search behaviors
- movement relative to acid droplets (Free-roaming mites): moved toward and occasionally into acid droplets

SMILES: CCC(=O)O [propanoic acid]
- detection by mite forelegs (GC-EAD) (Varroa mite forelegs): did not appear to be detected
